Source: patent US8530465B2, “1, 2-disubstituted amido-anthraquinone derivatives, preparation method and application thereof” (National Defense Medical Center, priority 2010, dated 2013)

What was measured:
hTERT = assay: Secreted alkaline phosphatase (SEAP) assay, PhTERT-SEAP (H1299); type: cell-based; details: Homo sapiens, 24 hours; for activity at 1 µM: NCI-H1299, Conc. 1 μM, read-out: Relative SEAP activity (%); for activity at 10 µM: NCI-H1299, Conc. 10 μM; for activity at 10 µM / activity at 100 µM: read-out: Relative SEAP activity (%) (converted); for activity at 100 µM: NCI-H1299, Conc. 100 μM
Method: H1299 were grown in RPMI 1640 media supplemented with 10% fetal bovine serum, 100 units/mL penicillin and […] streptomycin in a humidified atmosphere with 5% CO2 at 37° C. Culture media were changed every three days. To establish stable cell lines that the expression of hTERT could be monitored by a reporter system, a about 3.3 kbp DNA fragment ranging from −3338 to +1 bp of the hTERT gene (hTERT promoter, PhTERT) was subcloned upstream to a secreted alkaline phosphatase gene (SEAP) and transfected into H1299 by electroporation. The stable clones were selected using G418. The stable clones derived from H1299 were cultured using conditions that are similar to their parental cells.
Secreted alkaline phosphatase was used as the reporter system to monitor the transcriptional activity of hTERT. Here, about 10^4 cells each were grown in 96-well plates and incubated at 37° C. for 24 hours and changed with fresh media. Varying amounts of drugs were added and cells were incubated for another 24 hours. Culture media were collected and heated at 65° C. for 10 min to inactivate heat-labile phosphatases. An equal amount of SEAP buffer (2 M diethanolamine, 1 mM MgCl2, and 20 mM L-homoarginine) was added to the media and p-nitrophenyl phosphate was added to a final concentration of 12 mM. Absorptions at 405 nm were taken, and the rate of absorption increase is determined (the increasing rate of absorbance at 405 nm was used to represent the activity of SEAP).

[1] = MTT assay, PhTERT-SEAP (H1299); type: cell-based, human; details: human, H1299 cells carrying the PhTERT-SEAP reporter, PhTERT-SEAP (H1299); for viability at 1 μM: Conc. 1 μM, read-out: Relative MTT viability (%); for viability at 10 μM: Conc. 10 μM; for viability at 10 μM / viability at 100 μM: read-out: Relative MTT viability (%) (converted); for viability at 100 μM: Conc. 100 μM
Method: Further, cells were subjected to MTT assay to compare the relative toxicity or effect of each compound on cell proliferation and activity.
The above-described cells are cultured in a 96-well plate, to which was added with 25 μl MTT solution, and cultured in a 37° C. carbon dioxide incubator for 4 hours. Then, 100 μl Lysis buffer is added and incubated in a 37° C. carbon dioxide incubator overnight. An ELISA reader (Bio-Rad Model 450) is used to read optical density (O.D.) at 550 nm.

melting point [°C] | Compound | activity at 1 µM (hTERT) [%] | activity at 10 µM (hTERT) [%] | activity at 100 µM (hTERT) [%] | viability at 1 μM [1] [%] | viability at 10 μM [1] [%] | viability at 100 μM [1] [%]
– | Nc1ccc2c(c1N)C(=O)c1ccccc1C2=O [1,2-diaminoanthraquinone, reference compound] | 98.5 ± 11.7 | 77.3 | 18.2 | – | – | –
154 to 155 | O=C(CCCCl)Nc1ccc2c(c1NC(=O)CCCCl)C(=O)c1ccccc1C2=O [CC-03, 1,2-bis-(4-chlorobutyramido)-anthraquinone] | 114 ± 6.14 | 92.9 | 15.2 | 103 ± 7.01 | 79.9 | 19
182 to 183 | O=C(CCl)Nc1ccc2c(c1NC(=O)CCCl)C(=O)c1ccccc1C2=O [CC-07, 1-[(3-chloropropanyl)amido]-2-(chloroacetamido)-anthraquinone] | 114 ± 6.14 | 92.9 | 15.2 | 103 ± 7.01 | 79.9 | 19
163 to 164 | O=C(CCl)Nc1ccc2c(c1NC(=O)CCCCl)C(=O)c1ccccc1C2=O [CC-08, 1-[(4-chlorobutanyl)amido]-2-(chloroacetamido)-anthraquinone] | 108 ± 9.03 | 97.1 | 30.9 | 100 ± 4.4 | 117 | 62
203 to 204 | O=C(CCl)Nc1ccc2c(c1NC(=O)c1ccccc1)C(=O)c1ccccc1C2=O [CC-09, 1-(benzamido)-2-(chloroacetamido)-anthraquinone] | 96.3 ± 3.31 | 94.7 | 16 | 101 ± 4.37 | 83.8 | 5.38
202 to 203 | Cc1cccc(C(=O)Nc2c(NC(=O)CCl)ccc3c2C(=O)c2ccccc2C3=O)c1 [CC-11, 1-(3-methylbenzamido)-2-(chloroacetamido)-anthraquinone] | 116 ± 14.8 | -1.91 | -3.1 | 72.8 ± 3.83 | 0.7 | –
245 to 246 | O=C(CCl)Nc1ccc2c(c1NC(=O)c1ccccc1F)C(=O)c1ccccc1C2=O [CC-13, 1-(2-fluorobenzamido)-2-(chloroacetamido)-anthraquinone] | 105 ± 12.7 | 5.89 | 2.11 | 78.8 ± 7.83 | 2.77 | –
193 to 194 | O=C(CCl)Nc1ccc2c(c1NC(=O)c1ccccc1Cl)C(=O)c1ccccc1C2=O [CC-16, 1-(2-chlorobenzamido)-2-(chloroacetamido)-anthraquinone] | 81.6 ± 48.2 | 5.35 | 1.23 | 102 ± 4.26 | 6.63 | –
188 to 189 | O=C(CCl)Nc1ccc2c(c1NC(=O)c1cccc(Cl)c1)C(=O)c1ccccc1C2=O [CC-17, 1-(3-chlorobenzamido)-2-(chloroacetamido)-anthraquinone] | 80.9 ± 3.9 | 6.65 | 3.51 | 89.7 ± 2.74 | 5.08 | –
224 to 225 | O=C(CCl)Nc1ccc2c(c1NC(=O)c1ccc(Cl)cc1)C(=O)c1ccccc1C2=O [CC-18, 1-(4-chlorobenzamido)-2-(chloroacetamido)-anthraquinone] | 98.7 ± 5.6 | 6.26 | 4.95 | 92.4 ± 7.16 | 5.17 | 4.25
248 to 250 | O=C(CCl)Nc1ccc2c(c1NC(=O)c1ccccc1C(F)(F)F)C(=O)c1ccccc1C2=O [CC-19, 1-[2-(trifluoromethyl)benzamido]-2-(chloroacetamido)-anthraquinone] | 93.5 ± 6.11 | 4.89 | 2.4 | 93.2 ± 2.95 | 3.42 | –
203 to 204 | O=C(CCl)Nc1ccc2c(c1NC(=O)c1ccc(C(F)(F)F)cc1)C(=O)c1ccccc1C2=O [CC-21, 1-[4-(trifluoromethyl)benzamido]-2-(chloroacetamido)-anthraquinone] | 85.9 ± 8 | 8.61 ± 0.0611 | 6.49 | 86.3 ± 2.6 | 6.58 | –
187 to 188 | O=C(CCl)Nc1ccc2c(c1NC(=O)c1cc(C(F)(F)F)ccc1C(F)(F)F)C(=O)c1ccccc1C2=O [CC-22, 1-1-[2,5-bis-(trifluoromethyl)benzamido]-2-(chloroacetamido)-anthraquinone] | 90.3 ± 1.77 | 5.11 | 4.11 | 86.7 ± 2.13 | 8.81 | –
213 to 214 | O=C(CCl)Nc1ccc2c(c1NC(=O)Cc1ccc(F)cc1)C(=O)c1ccccc1C2=O [CC-24, 1-[2-(4-fluorophenyl)acetylamino]-2-(chloroacetamido)-anthraquinone] | 93.1 ± 5.96 | 8.4 | 1.75 | 88.9 ± 5.07 | 7.31 | 6.17
191 to 192 | O=C(CCl)Nc1ccc2c(c1NC(=O)C1CC1)C(=O)c1ccccc1C2=O [CC-25, 1-[(cyclopropanecarbonyl)amino]-2-(chloroacetamido)-anthraquinone] | 83.8 ± 2.67 | 3.46 | 1.38 | 88.7 ± 3.92 | – | –
216 to 217 | O=C(CCl)Nc1ccc2c(c1NC(=O)C1CCCCC1)C(=O)c1ccccc1C2=O [CC-26, 1-[(cyclohexanecarbonyl)amino]-2-(chloroacetamido)-anthraquinone] | 82.5 ± 4.53 | 3.07 | 1.76 | 82.3 ± 4.4 | 1.54 | –
211 to 212 | O=C(CCl)Nc1ccc2c(c1NC(=O)c1ccco1)C(=O)c1ccccc1C2=O [CC-27, 1-[(2-furoyl)amino]-2-(chloroacetamido)-anthraquinone] | 84.7 ± 23.3 | 2.94 | 2.62 | 80.4 ± 3.56 | – | –
190 to 191 | O=C(CCl)Nc1ccc2c(c1NC(=O)c1cccs1)C(=O)c1ccccc1C2=O [CC-28, 1-[(2-thiophenecarbonyl)amino]-2-(chloroacetamido)-anthraquinone] | 5.81 ± 23.3 | 3.03 | 2.2 | – | – | –
– | O=C1c2c(O)ccc(O)c2C(=O)c2c(NCCNCCO)ccc(NCCNCCO)c21 [mitoxantrone, reference compound] | 20.8 ± 1.56 | 9.92 | 7.19 | – | – | –

Compound | melting point [°C] | activity at 1 µM (hTERT) [%] | activity at 10 µM (hTERT) [%] | activity at 100 µM (hTERT) [%] | viability at 1 μM [1] [%] | viability at 10 μM [1] [%] | viability at 100 μM [1] [%]
O=C(CCCl)Nc1ccc2c(c1NC(=O)CCCl)C(=O)c1ccccc1C2=O [CC-02, 1,2-bis-(3-chloropropionamido)-anthraquinone] | 179 to 180 | 96.3 ± 3.31 | 94.7 | 16 | 101 ± 4.37 | 83.8 | 5.38
Nc1c(NC(=O)CCl)ccc2c1C(=O)c1ccccc1C2=O [CC-05, 1-(amino)-2-(chloroacetamido)-anthraquinone] | 193 to 194 | 42 ± 4.16 | 6.73 ± 0.83 | 3.23 ± 1.22 | 64.3 ± 8.97 | – | –
Cc1ccccc1C(=O)Nc1c(NC(=O)CCl)ccc2c1C(=O)c1ccccc1C2=O [CC-10, 1-(2-methylbenzamido)-2-(chloroacetamido)-anthraquinone] | 179 to 180 | 98.6 ± 7.92 | -3.13 | -5.69 | 73.8 ± 7.94 | – | –
O=C(CCl)Nc1ccc2c(c1NC(=O)c1cccc(C(F)(F)F)c1)C(=O)c1ccccc1C2=O [CC-20, 1-[3-(trifluoromethyl)benzamido]-2-(chloroacetamido)-anthraquinone] | 190 to 191 | 99.8 ± 4.15 | 4.53 | 0.32 | 94.7 ± 3.59 | 5.15 | 3.37
